Results published in ChEMBL document CHEMBL3351445, “Potent 11β-hydroxylase inhibitors with inverse metabolic stability in human plasma and hepatic S9 fractions to promote wound healing” (J Med Chem, 2014).

How the values were obtained:
V79MZh [1] = assay: Selectivity ratio of IC50 for human placental CYP19 to IC50 for human CYP11B1 expressed in hamster V79MZh cells; type: cell-based
[2] = biological target: T1, Cytochrome P450 11B1, mitochondrial (Homo sapiens, UniProt P15538); assay: Inhibition of human CYP11B1 expressed in hamster V79MZh cells using [1,2-3H]-11-deoxycorticosterone as substrate
T1 sequence (P15538 whole entry): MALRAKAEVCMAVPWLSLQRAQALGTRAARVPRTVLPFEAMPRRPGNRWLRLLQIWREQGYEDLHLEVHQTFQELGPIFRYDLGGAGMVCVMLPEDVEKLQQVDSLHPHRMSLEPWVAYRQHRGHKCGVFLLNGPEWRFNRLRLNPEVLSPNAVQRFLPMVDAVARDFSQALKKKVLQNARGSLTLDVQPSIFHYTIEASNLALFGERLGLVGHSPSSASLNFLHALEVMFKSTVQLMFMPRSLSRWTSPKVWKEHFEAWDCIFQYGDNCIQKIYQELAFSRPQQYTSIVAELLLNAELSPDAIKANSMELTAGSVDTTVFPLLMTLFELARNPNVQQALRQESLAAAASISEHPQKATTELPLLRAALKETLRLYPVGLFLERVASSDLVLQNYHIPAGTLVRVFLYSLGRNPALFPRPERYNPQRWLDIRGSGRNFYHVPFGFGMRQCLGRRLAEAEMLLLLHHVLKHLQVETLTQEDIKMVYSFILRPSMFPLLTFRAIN

CYP19 (aromatase) = biological target: T2, CYP19 (aromatase) (Homo sapiens, UniProt P11511); assay: Inhibition of human placental CYP19 using [1beta-3H]androstenedione as substrate at 2 uM by 3H2O-method; conditions: human placental CYP19, probe [1beta-3H]androstenedione
T2 sequence (P11511 whole entry): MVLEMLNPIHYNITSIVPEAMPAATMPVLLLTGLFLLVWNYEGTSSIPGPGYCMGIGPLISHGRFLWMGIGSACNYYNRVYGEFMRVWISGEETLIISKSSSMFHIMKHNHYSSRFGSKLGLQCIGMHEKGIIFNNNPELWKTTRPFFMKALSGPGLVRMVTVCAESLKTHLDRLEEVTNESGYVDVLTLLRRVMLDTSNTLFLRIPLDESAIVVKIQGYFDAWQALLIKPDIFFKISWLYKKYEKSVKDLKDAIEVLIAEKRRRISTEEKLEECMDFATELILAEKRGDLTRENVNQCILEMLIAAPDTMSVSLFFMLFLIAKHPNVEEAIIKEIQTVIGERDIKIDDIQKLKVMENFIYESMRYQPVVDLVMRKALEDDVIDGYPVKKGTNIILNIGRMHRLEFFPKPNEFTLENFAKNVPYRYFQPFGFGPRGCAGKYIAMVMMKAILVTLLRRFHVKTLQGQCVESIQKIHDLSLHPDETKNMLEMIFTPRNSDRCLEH

[3] = biological target: T3, Cytochrome P450 11B2, mitochondrial (Homo sapiens, UniProt P19099); assay: Inhibition of human CYP11B2 expressed in hamster V79MZh cells using [1,2-3H]-11-deoxycorticosterone as substrate
T3 sequence (P19099 whole entry): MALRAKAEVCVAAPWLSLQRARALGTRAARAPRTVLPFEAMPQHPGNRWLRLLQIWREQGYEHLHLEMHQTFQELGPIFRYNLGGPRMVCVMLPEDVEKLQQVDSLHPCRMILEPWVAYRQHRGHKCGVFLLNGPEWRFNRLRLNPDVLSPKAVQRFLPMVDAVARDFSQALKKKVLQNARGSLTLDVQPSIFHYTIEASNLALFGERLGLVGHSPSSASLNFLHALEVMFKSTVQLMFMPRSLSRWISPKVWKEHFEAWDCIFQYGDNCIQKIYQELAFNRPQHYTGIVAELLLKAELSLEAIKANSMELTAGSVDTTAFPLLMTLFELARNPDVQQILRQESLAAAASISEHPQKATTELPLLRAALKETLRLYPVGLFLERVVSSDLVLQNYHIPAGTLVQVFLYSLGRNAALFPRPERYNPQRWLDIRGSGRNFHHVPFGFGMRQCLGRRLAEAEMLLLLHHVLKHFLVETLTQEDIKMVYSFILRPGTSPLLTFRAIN

CYP17 = biological target: T4, CYP17 (Homo sapiens, UniProt P05093); assay: Inhibition of human CYP17 expressed in Escherichia coli using progesterone as substrate at 2 uM; conditions: probe progesterone
T4 sequence (P05093 whole entry): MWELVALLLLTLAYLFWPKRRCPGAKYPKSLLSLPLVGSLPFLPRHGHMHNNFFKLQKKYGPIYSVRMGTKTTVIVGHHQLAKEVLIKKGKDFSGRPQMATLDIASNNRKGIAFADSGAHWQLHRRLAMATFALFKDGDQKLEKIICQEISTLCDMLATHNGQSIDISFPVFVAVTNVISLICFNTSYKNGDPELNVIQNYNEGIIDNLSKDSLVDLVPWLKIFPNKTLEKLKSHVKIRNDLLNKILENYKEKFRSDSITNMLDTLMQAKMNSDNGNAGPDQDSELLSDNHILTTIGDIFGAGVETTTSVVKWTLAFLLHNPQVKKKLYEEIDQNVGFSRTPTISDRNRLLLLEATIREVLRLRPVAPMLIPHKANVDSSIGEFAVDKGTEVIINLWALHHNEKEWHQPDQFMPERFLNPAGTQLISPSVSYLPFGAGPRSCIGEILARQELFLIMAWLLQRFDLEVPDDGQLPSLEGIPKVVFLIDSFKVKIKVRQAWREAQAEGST

V79MZh [4] = assay: Selectivity ratio of IC50 for human CYP17 expressed in Escherichia coli to IC50 for human CYP11B1 expressed in hamster V79MZh cells
[5] = Half life in human liver S9 fraction by LC-MS/MS analysis; type: ADME, subcellular
Salmonella typhimurium [6] = assay: Mutagenicity in Salmonella typhimurium TA7001/7002/7003/7004/7005/7006 up to 100 uM by Ames II assay; type: toxicity, organism-based; conditions: salmonella enterica subsp. enterica serovar typhimurium
Salmonella typhimurium [7] = assay: Mutagenicity in Salmonella typhimurium TA98 up to 100 uM by Ames II assay; type: toxicity, organism-based; conditions: salmonella enterica subsp. enterica serovar typhimurium
[8] = Half life in human plasma by LC-MS/MS analysis; type: ADME, cell-free
Salmonella typhimurium [9] = assay: Mutagenicity in Salmonella typhimurium TA98 up to 100 uM by Ames II assay in presence of S9 fraction; type: toxicity, organism-based; conditions: salmonella enterica subsp. enterica serovar typhimurium
Salmonella typhimurium [10] = assay: Mutagenicity in Salmonella typhimurium TA7001/7002/7003/7004/7005/7006 up to 100 uM by Ames II assay in presence of S9 fraction; type: toxicity, organism-based; conditions: salmonella enterica subsp. enterica serovar typhimurium

SMILES | IC50 [2] [nM] | IC50 [3] [nM] | also measured
COc1cccc(S(=O)(=O)N(Cc2ccccc2)c2ccc(-c3cccnc3)cc2)c1 | 2000 | – | –
O=S(=O)(c1ccc(F)cc1)N1CCCc2cc(-c3cccnc3)ccc21 | 49 | 260 | –
COc1ccc(S(=O)(=O)N2CCCc3cc(-c4cccnc4)ccc32)cc1 | 334 | 519 | –
N#Cc1ccc(S(=O)(=O)N2CCCc3cc(-c4cccnc4)ccc32)cc1 | 114 | 557 | –
COc1cccc(S(=O)(=O)N2CCc3cc(-c4cccnc4)cnc32)c1 | 587 | – | –
COc1cccc(S(=O)(=O)N2CCc3cc(-c4cccnc4)ccc32)c1 | 111 | 251 | –
COc1cccc(S(=O)(=O)N2CCCc3cc(-c4cccnc4)ccc32)c1 | 28 | 85 | Ratio IC50 (V79MZh [1]): > 60; inhibition at 2 µM (CYP19 (aromatase)): 32%; inhibition at 2 µM (CYP17): 11%; Ratio IC50 (V79MZh [4]): > 60
O=S(=O)(c1cccc(F)c1)N1CCCc2cc(-c3cccnc3)ccc21 | 71 | 196 | –
O=S(=O)(c1cccc(Cl)c1)N1CCCc2cc(-c3cccnc3)ccc21 | 62 | 344 | –
COc1cccc(S(=O)(=O)N2CCCc3cc(-c4ccncc4)ccc32)c1 | > 5000 | – | –
O=S(=O)(c1cccc(F)c1)N1CCc2cc(-c3cccnc3)ccc21 | 327 | 850 | –
O=S(=O)(c1ccccc1)N1CCCc2cc(-c3cccnc3)ccc21 | 65 | 295 | –
Cc1ccc(S(=O)(=O)N2CCCc3cc(-c4cccnc4)ccc32)cc1 | 278 | 555 | –
O=S(=O)(c1cccs1)N1CCCc2cc(-c3cccnc3)ccc21 | 60 | 259 | –
N#Cc1cccc(S(=O)(=O)N2CCCc3cc(-c4cccnc4)ccc32)c1 | 65 | 429 | –
O=S(=O)(C1CCCCC1)N1CCCc2cc(-c3cccnc3)ccc21 | 1170 | – | –
CC(C)(C(=O)c1cccnc1)c1cccnc1 [METYRAPONE] | – | – | half-life [5]: 49 min
COc1cccc(S(=O)(=O)N2CCc3cc(-c4ccncc4)cnc32)c1 | 1750 | – | –
O=S(=O)(c1ccc(OC(F)(F)F)cc1)N1CCCc2cc(-c3cccnc3)ccc21 | 929 | – | –

More lines, main results first:

IC50 [2] [nM] | IC50 [3] [nM] | SMILES | also measured
26 | 205 | Cc1cccc(S(=O)(=O)N2CCCc3cc(-c4cccnc4)ccc32)c1 | Ratio IC50 (V79MZh [1]): > 60; inhibition at 2 µM (CYP19 (aromatase)): 29%; inhibition at 2 µM (CYP17): 9%; Ratio IC50 (V79MZh [4]): > 60
1220 | – | O=S(=O)(c1ccc(C(F)(F)F)cc1)N1CCCc2cc(-c3cccnc3)ccc21 | –
6 | 5 | COc1cccc(S(=O)(=O)N2CCCc3cc(Cc4ccncc4)ccc32)c1 | Ratio IC50 (V79MZh [1]): > 60; inhibition at 2 µM (CYP19 (aromatase)): 88%; inhibition at 2 µM (CYP17): 14%; Ratio IC50 (V79MZh [4]): > 60
137 | 469 | O=S(=O)(c1ccc(Cl)cc1)N1CCCc2cc(-c3cccnc3)ccc21 | –
68 | 239 | COc1cccc(S(=O)(=O)N(C)c2ccc(-c3cccnc3)cc2)c1 | –
309 | 607 | O=S(=O)(c1cccc(C(F)(F)F)c1)N1CCCc2cc(-c3cccnc3)ccc21 | –
382 | 322 | O=S(=O)(c1cccc(OC(F)(F)F)c1)N1CCCc2cc(-c3cccnc3)ccc21 | –
188 | 850 | COc1cccc(S(=O)(=O)Nc2ccc(-c3cccnc3)cc2)c1 | –
5 | 8 | COc1cccc(S(=O)(=O)N2CCCc3cc(Cc4cccnc4)ccc32)c1 | Activity (Salmonella typhimurium [6]): Non-toxic; Activity (Salmonella typhimurium [7]): Non-toxic; Ratio IC50 (V79MZh [1]): > 60; half-life [8]: > 150 min; inhibition at 2 µM (CYP19 (aromatase)): 26%; inhibition at 2 µM (CYP17): 9%; Ratio IC50 (V79MZh [4]): > 60; Activity (Salmonella typhimurium [9]): Non-toxic; half-life [5]: 16 min; Activity (Salmonella typhimurium [10]): Non-toxic
663 | – | O=S(=O)(c1ccc2ccccc2c1)N1CCCc2cc(-c3cccnc3)ccc21 | –
